≈ marks a conversion by molar mass, not a printed value. Calls of active or inactive are those of the source. The calls are words filed in the database; no cut-off is given here.
Assays:
cells = details: Homo sapiens, PC3MM2
[1] = Membrane permeability at pH 7.4 by PAMPA assay; type: ADME; details: read-out: permeability
MDA-MB-361 [2] = test: cells; details: Homo sapiens
[3] = molecular target: Serine/threonine-protein kinase mTOR (Homo sapiens, UniProt P42345)
[4] = Solubility at pH 7.4; type: physicochemical; details: buffer
[5] = molecular target: Phosphatidylinositol 4,5-bisphosphate 3-kinase catalytic subunit alpha isoform (Homo sapiens, UniProt P42336)
Sequence of Phosphatidylinositol 4,5-bisphosphate 3-kinase catalytic subunit alpha isoform (P42336 whole entry, canonical isoform): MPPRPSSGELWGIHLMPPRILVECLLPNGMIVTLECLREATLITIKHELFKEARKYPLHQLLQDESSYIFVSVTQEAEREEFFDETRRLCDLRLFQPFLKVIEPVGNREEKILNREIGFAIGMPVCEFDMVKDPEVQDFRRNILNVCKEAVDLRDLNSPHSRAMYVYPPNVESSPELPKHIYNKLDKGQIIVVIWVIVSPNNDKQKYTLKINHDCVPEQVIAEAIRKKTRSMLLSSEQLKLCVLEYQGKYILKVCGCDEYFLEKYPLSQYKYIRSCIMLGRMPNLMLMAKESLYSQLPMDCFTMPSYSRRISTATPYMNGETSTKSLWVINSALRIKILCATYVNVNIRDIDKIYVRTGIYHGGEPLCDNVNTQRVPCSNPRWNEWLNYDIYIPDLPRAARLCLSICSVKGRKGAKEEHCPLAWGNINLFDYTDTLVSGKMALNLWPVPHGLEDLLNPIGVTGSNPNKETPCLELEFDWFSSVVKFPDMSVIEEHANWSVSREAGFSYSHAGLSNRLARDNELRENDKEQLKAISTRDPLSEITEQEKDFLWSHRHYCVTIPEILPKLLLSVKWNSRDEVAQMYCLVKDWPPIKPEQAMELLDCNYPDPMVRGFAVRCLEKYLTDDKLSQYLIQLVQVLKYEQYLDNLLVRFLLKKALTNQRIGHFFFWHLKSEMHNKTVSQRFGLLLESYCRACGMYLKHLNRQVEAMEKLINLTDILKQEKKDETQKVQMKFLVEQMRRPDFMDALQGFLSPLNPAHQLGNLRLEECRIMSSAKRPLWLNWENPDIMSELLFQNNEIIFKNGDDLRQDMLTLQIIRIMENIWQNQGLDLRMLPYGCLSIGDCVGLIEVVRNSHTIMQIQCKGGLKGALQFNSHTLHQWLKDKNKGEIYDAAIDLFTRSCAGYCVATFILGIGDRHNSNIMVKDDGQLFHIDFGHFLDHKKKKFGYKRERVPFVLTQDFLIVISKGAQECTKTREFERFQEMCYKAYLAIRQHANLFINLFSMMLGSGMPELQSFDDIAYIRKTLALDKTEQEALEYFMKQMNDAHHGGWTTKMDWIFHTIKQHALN

[6] = molecular target: Phosphatidylinositol 4,5-bisphosphate 3-kinase catalytic subunit gamma isoform (Homo sapiens, UniProt P48736)
Sequence of Phosphatidylinositol 4,5-bisphosphate 3-kinase catalytic subunit gamma isoform (P48736 whole entry, canonical isoform): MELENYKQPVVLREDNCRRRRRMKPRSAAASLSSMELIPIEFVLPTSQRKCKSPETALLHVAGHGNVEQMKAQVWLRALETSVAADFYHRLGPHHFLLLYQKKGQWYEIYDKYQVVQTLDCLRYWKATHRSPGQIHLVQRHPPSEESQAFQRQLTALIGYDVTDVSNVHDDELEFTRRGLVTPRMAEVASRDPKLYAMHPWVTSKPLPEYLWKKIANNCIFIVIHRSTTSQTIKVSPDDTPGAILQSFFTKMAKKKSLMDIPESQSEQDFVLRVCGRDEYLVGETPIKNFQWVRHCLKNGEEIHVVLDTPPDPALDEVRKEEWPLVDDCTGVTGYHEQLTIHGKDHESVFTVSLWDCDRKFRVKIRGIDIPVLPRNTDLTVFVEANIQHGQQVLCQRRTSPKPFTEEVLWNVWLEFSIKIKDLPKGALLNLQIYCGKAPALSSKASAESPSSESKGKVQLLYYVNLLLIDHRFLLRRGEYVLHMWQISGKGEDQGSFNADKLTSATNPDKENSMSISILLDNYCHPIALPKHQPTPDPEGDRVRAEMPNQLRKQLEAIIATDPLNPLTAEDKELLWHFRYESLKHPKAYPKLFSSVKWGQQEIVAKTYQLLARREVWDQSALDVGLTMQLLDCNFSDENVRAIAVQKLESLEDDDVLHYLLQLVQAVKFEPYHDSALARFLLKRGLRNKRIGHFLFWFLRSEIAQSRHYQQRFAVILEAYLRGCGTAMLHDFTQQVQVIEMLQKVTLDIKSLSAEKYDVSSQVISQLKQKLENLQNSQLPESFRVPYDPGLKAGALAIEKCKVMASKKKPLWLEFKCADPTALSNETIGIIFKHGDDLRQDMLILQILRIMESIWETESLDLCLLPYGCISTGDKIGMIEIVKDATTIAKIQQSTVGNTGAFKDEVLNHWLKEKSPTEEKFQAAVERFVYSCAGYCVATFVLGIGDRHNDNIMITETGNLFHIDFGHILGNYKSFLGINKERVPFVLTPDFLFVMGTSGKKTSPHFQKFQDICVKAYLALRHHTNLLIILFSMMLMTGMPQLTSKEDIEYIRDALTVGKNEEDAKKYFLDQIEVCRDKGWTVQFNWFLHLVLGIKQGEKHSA

[7] = molecular target: Proline-rich AKT1 substrate 1 (Homo sapiens) (UniProt Q96B36); test: Inhibition of PARS40 phosphorylation in human MDA-MB-361 cells by Western blotting; type: cell-based
NCI-H1975 = test: Antitumor activity against human NCI-H1975 cells xenografted orthotopic mouse model assessed as survival at 25 mg/kg once weekly for 7 weeks relative to untreated control; type: functional
MDA-MB-361 [8] = test: Induction of PARP cleavage in human MDA-MB-361 cells xenografted mouse model upto 18 hrs; type: functional, cell-based
[9] = Last AUC in mouse at 25 mg/kg, iv; type: ADME, organism-based; parameters: dose 25 mg/kg, route intravenous; details: in vivo
[10] = Plasma clearance in mouse at 25 mg/kg, iv; type: ADME, organism-based; parameters: dose 25 mg/kg, route intravenous
Mus musculus [11] = test: Antitumor activity against human MDA-MB-361 cells xenografted mouse model assessed as minimum effective dose; type: functional; details: read-out: MED
[12] = molecular target: Glycogen synthase kinase-3 (Homo sapiens) (UniProt P49840+P49841); test: Inhibition of GSK3 kinase phosphorylation in human MDA-MB-361 cells by Western blotting; type: cell-based
Sequence of Glycogen synthase kinase-3 (Homo sapiens) (P49840 whole entry, looked up): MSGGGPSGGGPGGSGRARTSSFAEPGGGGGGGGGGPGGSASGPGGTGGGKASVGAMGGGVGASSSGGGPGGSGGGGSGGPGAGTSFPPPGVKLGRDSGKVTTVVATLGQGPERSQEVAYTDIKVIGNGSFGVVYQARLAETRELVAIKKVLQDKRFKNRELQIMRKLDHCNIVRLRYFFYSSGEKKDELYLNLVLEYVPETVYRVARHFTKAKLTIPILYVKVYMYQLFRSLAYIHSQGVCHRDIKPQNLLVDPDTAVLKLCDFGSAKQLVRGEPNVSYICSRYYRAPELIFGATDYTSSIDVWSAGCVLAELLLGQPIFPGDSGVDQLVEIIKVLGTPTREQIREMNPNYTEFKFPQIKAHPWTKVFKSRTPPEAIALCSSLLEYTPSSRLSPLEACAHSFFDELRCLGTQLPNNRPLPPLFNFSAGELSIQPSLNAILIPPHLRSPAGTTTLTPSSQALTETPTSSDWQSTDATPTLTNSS
Sequence of Glycogen synthase kinase-3 (Homo sapiens) (P49841 whole entry, looked up): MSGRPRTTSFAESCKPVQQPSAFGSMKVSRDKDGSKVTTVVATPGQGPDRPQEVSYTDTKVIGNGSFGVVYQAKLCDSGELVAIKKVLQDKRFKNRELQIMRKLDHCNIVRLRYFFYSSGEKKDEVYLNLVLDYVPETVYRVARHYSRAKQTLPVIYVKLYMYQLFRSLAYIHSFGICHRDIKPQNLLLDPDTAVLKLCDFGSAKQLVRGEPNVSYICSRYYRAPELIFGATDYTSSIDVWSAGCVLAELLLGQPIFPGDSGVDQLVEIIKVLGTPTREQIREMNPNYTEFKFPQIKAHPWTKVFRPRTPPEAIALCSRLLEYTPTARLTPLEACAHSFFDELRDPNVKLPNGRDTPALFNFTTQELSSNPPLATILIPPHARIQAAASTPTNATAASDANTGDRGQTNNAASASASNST

[13] = Volume of distribution at steady state in mouse at 25 mg/kg, iv; type: ADME, organism-based; parameters: dose 25 mg/kg, route intravenous; details: in vivo, read-out: Vdss
Mus musculus [14] = test: Antitumor activity against human MDA-MB-361 cells xenografted mouse model assessed as maximum tolerated single dose; type: functional
[15] = molecular target: RAC-alpha serine/threonine-protein kinase (Homo sapiens) (UniProt P31749); test: Inhibition of Akt S473 phosphorylation in human MDA-MB-361 cells xenografted mouse model upto 36 hrs; type: cell-based
Sequence of RAC-alpha serine/threonine-protein kinase (Homo sapiens) (P31749 whole entry): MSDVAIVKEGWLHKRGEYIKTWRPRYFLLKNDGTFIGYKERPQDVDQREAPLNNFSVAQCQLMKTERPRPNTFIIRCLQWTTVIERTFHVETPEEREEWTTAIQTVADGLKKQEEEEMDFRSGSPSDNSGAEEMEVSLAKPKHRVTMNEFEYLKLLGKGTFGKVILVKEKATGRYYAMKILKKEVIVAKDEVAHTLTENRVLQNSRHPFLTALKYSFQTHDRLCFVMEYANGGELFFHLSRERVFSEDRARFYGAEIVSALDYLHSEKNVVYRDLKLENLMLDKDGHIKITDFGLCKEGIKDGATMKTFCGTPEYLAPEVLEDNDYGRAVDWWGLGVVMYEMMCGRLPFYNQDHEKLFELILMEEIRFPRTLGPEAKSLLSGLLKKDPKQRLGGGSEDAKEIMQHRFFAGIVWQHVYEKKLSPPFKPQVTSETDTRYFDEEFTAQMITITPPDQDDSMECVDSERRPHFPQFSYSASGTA

[16] = molecular target: T1, Nitric oxide synthase 3 (Homo sapiens) (UniProt P29474); test: Inhibition of eNOS phosphorylation in human MDA-MB-361 cells by Western blotting; type: cell-based
T1 sequence (whole entry): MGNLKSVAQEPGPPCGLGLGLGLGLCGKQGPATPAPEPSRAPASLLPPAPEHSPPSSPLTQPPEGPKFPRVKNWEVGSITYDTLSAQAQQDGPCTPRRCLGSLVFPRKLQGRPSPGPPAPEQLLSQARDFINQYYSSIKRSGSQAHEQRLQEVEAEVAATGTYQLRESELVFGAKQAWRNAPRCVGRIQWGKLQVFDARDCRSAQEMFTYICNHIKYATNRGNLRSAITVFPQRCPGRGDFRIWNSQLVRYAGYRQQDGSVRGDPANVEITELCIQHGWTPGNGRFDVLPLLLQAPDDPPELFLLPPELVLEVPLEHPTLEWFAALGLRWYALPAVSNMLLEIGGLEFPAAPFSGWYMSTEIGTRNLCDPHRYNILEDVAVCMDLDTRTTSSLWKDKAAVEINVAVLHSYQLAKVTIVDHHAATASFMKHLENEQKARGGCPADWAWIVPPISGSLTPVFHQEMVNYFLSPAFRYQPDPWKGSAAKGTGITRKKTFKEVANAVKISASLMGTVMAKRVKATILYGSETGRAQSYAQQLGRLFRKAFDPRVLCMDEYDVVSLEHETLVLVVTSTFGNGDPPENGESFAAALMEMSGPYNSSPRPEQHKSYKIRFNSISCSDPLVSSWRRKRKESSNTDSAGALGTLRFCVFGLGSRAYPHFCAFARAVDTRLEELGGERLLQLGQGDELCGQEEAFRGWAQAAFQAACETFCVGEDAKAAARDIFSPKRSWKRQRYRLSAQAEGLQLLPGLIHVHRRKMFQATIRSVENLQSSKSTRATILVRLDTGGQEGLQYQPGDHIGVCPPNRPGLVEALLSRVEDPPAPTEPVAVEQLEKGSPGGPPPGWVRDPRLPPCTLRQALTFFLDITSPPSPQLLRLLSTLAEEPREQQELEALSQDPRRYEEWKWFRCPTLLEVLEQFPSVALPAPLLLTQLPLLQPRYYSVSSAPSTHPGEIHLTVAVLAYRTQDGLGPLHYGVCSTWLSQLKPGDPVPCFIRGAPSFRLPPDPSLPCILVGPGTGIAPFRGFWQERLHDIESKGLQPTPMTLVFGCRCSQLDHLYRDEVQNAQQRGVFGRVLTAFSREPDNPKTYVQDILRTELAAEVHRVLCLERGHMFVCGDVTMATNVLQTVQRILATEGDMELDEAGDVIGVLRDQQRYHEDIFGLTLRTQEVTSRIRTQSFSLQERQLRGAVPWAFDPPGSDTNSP

[17] = molecular target: RAC-alpha serine/threonine-protein kinase (Homo sapiens) (UniProt P31749); test: Inhibition of Akt T308 phosphorylation in human MDA-MB-361 cells xenografted mouse model upto 36 hrs; type: cell-based
[18] = Half life in mouse at 25 mg/kg, iv; type: ADME, organism-based; parameters: dose 25 mg/kg, route intravenous; details: in vivo
[19] = AUC (0 to infinity) in mouse at 25 mg/kg, iv; type: ADME, organism-based; parameters: dose 25 mg/kg, route intravenous, time infinity; details: plasma
[20] = […] in mouse at 25 mg/kg, iv; type: ADME, organism-based; parameters: dose 25 mg/kg, route intravenous; details: in vivo
MDA-MB-361 [21] = test: Antitumor activity against human MDA-MB-361 cells xenografted mouse model assessed as reduction in tumor volume at 20 mg/kg, iv on day 1, 5, 9; type: functional, organism-based; parameters: dose 20 mg/kg

Cc1ccc(NC(=O)Nc2ccc(-c3nc(N4CCOCC4)nc(N4CCOCC4)n3)cc2)cc1
IC50 (cells): 364 nM
Papp [1]: 5.6 ×10⁻⁶ cm/s
IC50 (MDA-MB-361 [2]): 200 nM

O=C(Nc1ccc(C(=O)N2CCC(N3CCCCC3)CC2)cc1)Nc1ccc(-c2nc(N3CCOCC3)nc(N3CCOCC3)n2)cc1
IC50 (cells): 7 nM
IC50 [3]: 0.7 nM
solubility [4]: 31 µg/mL (≈ 47.3 µM)
IC50 (MDA-MB-361 [2]): 3 nM

O=C(Nc1ccc(-c2nc(N3CCOCC3)nc(N3CCOCC3)n2)cc1)NN1CCCCC1
Papp [1]: 0.01 ×10⁻⁶ cm/s
IC50 [3]: 460 nM
IC50 [5]: 1520 nM
IC50 [6]: 7470 nM
solubility [4]: 100 µg/mL (≈ 213 µM)

CCNC(=O)Nc1ccc(-c2nc(N3CCOCC3)nc(N3CCOCC3)n2)cc1
Papp [1]: 0.7 ×10⁻⁶ cm/s
IC50 [3]: 10 nM
solubility [4]: 1 µg/mL (≈ 2.42 µM)

O=C(Nc1ccc(-c2nc(N3CCOCC3)nc(N3CCOCC3)n2)cc1)Nc1cccs1
IC50 (cells): 218 nM
Papp [1]: 2.4 ×10⁻⁶ cm/s
solubility [4]: 2 µg/mL (≈ 4.28 µM)

CN(C)C1CCN(C(=O)c2ccc(NC(=O)Nc3ccc(-c4nc(N5CCOCC5)nc(N5CCOCC5)n4)cc3)cc2)CC1 [GEDATOLISIB]
Activity [7]: Active
Activity (NCI-H1975): 90%
Papp [1]: 0.1 ×10⁻⁶ cm/s
Activity (MDA-MB-361 [8]): Active
AUC [9]: 42600 ng·h/mL
clearance [10]: 7 mL/min/kg
minimal effective dose (Mus musculus [11]): 3 mg/kg
Activity [12]: Active
Vd [13]: 7.2 L/kg
MTD (Mus musculus [14]): 30 mg/kg
Activity [15]: Active
Activity [16]: Active
Activity [17]: Active
half-life [18]: 14.4 h
solubility [4]: 14 µg/mL (≈ 22.7 µM)
AUC(0-inf) [19]: 57900 ng·h/mL
MRT [20]: 16.7 h
Activity (MDA-MB-361 [21]): Active

CNC(=O)c1ccc(NC(=O)Nc2ccc(-c3nc(N4CCOCC4)nc(N4CCOCC4)n3)cc2)cc1
IC50 (cells): 24 nM
solubility [4]: 1 µg/mL (≈ 1.93 µM)

CN(C)CCN(C)C(=O)c1ccc(NC(=O)Nc2ccc(-c3nc(N4CCOCC4)nc(N4CCOCC4)n3)cc2)cc1.Cl
IC50 (cells): 18.3 nM
Papp [1]: 0.03 ×10⁻⁶ cm/s
IC50 [3]: 0.6 nM
IC50 [6]: 9 nM
solubility [4]: 9 µg/mL
IC50 (MDA-MB-361 [2]): 9.8 nM

O=C(Nc1ccc(Cl)cc1)Nc1ccc(-c2nc(N3CCOCC3)nc(N3CCOCC3)n2)cc1
IC50 (cells): 293 nM
IC50 [3]: 6.7 nM
solubility [4]: 1 µg/mL (≈ 2.02 µM)
IC50 (MDA-MB-361 [2]): 407 nM

CNC(=O)Nc1ccc(-c2nc(N3CCOCC3)nc(N3CCOCC3)n2)cc1
IC50 [3]: 11.3 nM
IC50 [5]: 350 nM
IC50 [6]: 789 nM

CN(C)CCNC(=O)c1ccc(NC(=O)Nc2ccc(-c3nc(N4CCOCC4)nc(N4CCOCC4)n3)cc2)cc1
IC50 (cells): 11 nM
Papp [1]: 0.1 ×10⁻⁶ cm/s
IC50 [3]: 0.5 nM
IC50 [5]: 0.4 nM
IC50 [6]: 8 nM
solubility [4]: 7 µg/mL (≈ 12.2 µM)
IC50 (MDA-MB-361 [2]): 3 nM

O=C(Nc1ccc(F)cc1)Nc1ccc(-c2nc(N3CCOCC3)nc(N3CCOCC3)n2)cc1
IC50 (cells): 193 nM
Papp [1]: 1 ×10⁻⁶ cm/s
IC50 [3]: 3.9 nM
IC50 [5]: 6.5 nM
IC50 (MDA-MB-361 [2]): 118 nM

O=C(Nc1ccc(C(=O)N2CCC(N3CCCC3)CC2)cc1)Nc1ccc(-c2nc(N3CCOCC3)nc(N3CCOCC3)n2)cc1
IC50 (cells): 8.3 nM
IC50 [3]: 0.8 nM
IC50 [5]: 0.7 nM
IC50 [6]: 10 nM
solubility [4]: 33.5 µg/mL (≈ 52.2 µM)
IC50 (MDA-MB-361 [2]): 3 nM

O=C(Nc1ccncc1)Nc1ccc(-c2nc(N3CCOCC3)nc(N3CCOCC3)n2)cc1
IC50 (cells): 43 nM
Papp [1]: 1.4 ×10⁻⁶ cm/s
IC50 [3]: 1.2 nM
IC50 (MDA-MB-361 [2]): 45 nM

O=C(Nc1ccc(-c2nc(N3CCOCC3)nc(N3CCOCC3)n2)cc1)Nc1ccnnc1
IC50 (cells): 21 nM
solubility [4]: 1 µg/mL (≈ 2.16 µM)
IC50 (MDA-MB-361 [2]): 38 nM

O=C(Nc1ccccc1)Nc1ccc(-c2nc(N3CCOCC3)nc(N3CCOCC3)n2)cc1
IC50 (cells): 107 nM
Papp [1]: 0.2 ×10⁻⁶ cm/s
IC50 [3]: 3.9 nM
IC50 (MDA-MB-361 [2]): 56 nM

O=C(Nc1ccc(C(=O)O)cc1)Nc1ccc(-c2nc(N3CCOCC3)nc(N3CCOCC3)n2)cc1
IC50 (cells): 28 nM
IC50 [3]: 1.5 nM
solubility [4]: 52 µg/mL (≈ 103 µM)
IC50 (MDA-MB-361 [2]): 816 nM

O=C(Nc1ccc(-c2nc(N3CCOCC3)nc(N3CCOCC3)n2)cc1)Nc1cccnc1
IC50 (cells): 92 nM
Papp [1]: 0.5 ×10⁻⁶ cm/s
IC50 [3]: 1.2 nM
IC50 [5]: 1.7 nM

O=C(Nc1ccc(-c2nc(N3CCOCC3)nc(N3CCOCC3)n2)cc1)Nc1ccc(F)cc1F
IC50 (cells): 5630 nM
solubility [4]: 1 µg/mL (≈ 2.01 µM)
IC50 (MDA-MB-361 [2]): 794 nM

CN1CCN(C(=O)c2ccc(NC(=O)Nc3ccc(-c4nc(N5CCOCC5)nc(N5CCOCC5)n4)cc3)cc2)CC1
IC50 (cells): 13 nM
IC50 [3]: 1.4 nM
IC50 [5]: 0.5 nM
IC50 [6]: 9 nM
IC50 (MDA-MB-361 [2]): 10 nM

O=C(Nc1ccc(CO)cc1)Nc1ccc(-c2nc(N3CCOCC3)nc(N3CCOCC3)n2)cc1
IC50 (cells): 30 nM
Papp [1]: 0.2 ×10⁻⁶ cm/s
IC50 (MDA-MB-361 [2]): 30 nM

O=C(Nc1ccc(CCO)cc1)Nc1ccc(-c2nc(N3CCOCC3)nc(N3CCOCC3)n2)cc1
IC50 (cells): 39 nM
IC50 [3]: 1.8 nM
IC50 [5]: 1.5 nM
IC50 [6]: 21.5 nM
IC50 (MDA-MB-361 [2]): 36 nM

COC(=O)c1ccc(NC(=O)Nc2ccc(-c3nc(N4CCOCC4)nc(N4CCOCC4)n3)cc2)cc1
IC50 (cells): 45 nM
Papp [1]: 0.6 ×10⁻⁶ cm/s
solubility [4]: 1 µg/mL (≈ 1.92 µM)
IC50 (MDA-MB-361 [2]): 115 nM

Reference: ChEMBL document CHEMBL1157610, “Bis(morpholino-1,3,5-triazine) derivatives: potent adenosine 5'-triphosphate competitive phosphatidylinositol-3-kinase/mammalian target of rapamycin inhibitors: discovery of compound 26 (PKI-587), a highly efficacious dual inhibitor” (J Med Chem, 2010)
